These compounds were tested against MAPKAPK2 (Homo sapiens, UniProt P49137) (assay: HTS ATP-utilizing enzyme assay, off-chip mobility-shift (Caliper HTS 250)). Details: test compound 10 μM, kinase listed = active (greater than six-sigma from the mean activity of inactive compounds).
Format: biochemical
Description: The following procedures describe the reagent and plate preparation for a HTS of an ATP-utilizing enzyme, such as a protein kinase, run in an off-chip mobility-shift assay format. The following provides an HTS protocol for running a protein kinase HTS screen on a Caliper HTS 250 microfluidics system. The following parameters are dependent on the protein kinase used and can be determined by one skilled in the art as part of a typical assay development process. For example, the peptide substrate used can be identified from the current literature, by screening a peptide library of potential protein kinase substrates, or by other applicable means accepted in the field.
The following table provides typical screen assay parameters appropriate for a Caliper HTS 250 microfluidics system.
The reagents and buffers listed in the following table are generally applicable for developing and running an HTS screen on a human protein kinase using the Caliper HTS 250 system.
The following reagents were prepared using the previously described buffers.
A 2× Master Buffer solution was prepared by combining 200 mL of 1 M HEPES, pH 7.5, 2 mL of 10% Triton X-100, 20 mL of 10% BSA, and 778 mL of H2O.
A TCB Buffer solution was prepared by combining 125 mL of 2× Master Buffer, 10 mL of 0.5 M EDTA, 6.25 mL of 4% coating reagent, 1.01 mL of 100% DMSO, and 107.74 mL H2O.
Assays to determine the kinase inhibitory activity of compounds of the present disclosure were performed using a Caliper HTS 250 microfluidics device, Greiner U-bottom assay plates, a Multidrop for transfer of reagents, and Biomek FX (AMNCBM03) software. Initially, 2.4 μL of a 1 mM solution of a test compound in 100% DMSO was added to a well of the Greiner U-bottom plate. A single Greiner U-bottom plate having 24×16 wells could include multiple test compounds. […] Using the Biomek FX, 10 μL of 0.5 M EDTA was added by the span-8 to wells, indicated as 100% Control and 2.4 μL of 100% DMSO was added by the span-8 to wells, indicated as 0% Control. […] The total reaction volume in each well was 25 μL, and the concentration of the test compound was 10 μM. The assay plate was incubated for 2.5 hrs at 20° C. to 22° C. […] The inhibition of the ATP-utilizing enzyme, such as a particular protein kinase, was determined by measuring the ratio of the peptide substrate to phosphorylated product for each well of the assay plate using the Caliper HTS 250 system.
The use of six-sigma statistical limits represents a conservative method for declaring potential hits among targets. The six-sigma activity, as well as the mean population activity, can be different for each target enzyme.

MAPKAPK2, sequence (P49137 whole entry): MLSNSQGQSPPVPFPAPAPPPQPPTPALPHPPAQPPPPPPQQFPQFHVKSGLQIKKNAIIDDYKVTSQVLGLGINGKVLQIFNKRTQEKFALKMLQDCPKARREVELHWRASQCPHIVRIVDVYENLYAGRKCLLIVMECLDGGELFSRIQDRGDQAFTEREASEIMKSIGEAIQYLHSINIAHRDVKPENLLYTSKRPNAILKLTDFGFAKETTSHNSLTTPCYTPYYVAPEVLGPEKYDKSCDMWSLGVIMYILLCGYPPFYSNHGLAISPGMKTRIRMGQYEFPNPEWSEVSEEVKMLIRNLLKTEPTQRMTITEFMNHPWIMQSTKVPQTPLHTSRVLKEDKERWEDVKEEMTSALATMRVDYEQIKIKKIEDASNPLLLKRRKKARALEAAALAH

Structure (SMILES)	Activity
CN(C)[C@H]1CCN(c2ccc(Nc3ccnc4ccc(-c5ccc(Cl)cc5)cc34)cc2)C1 [(S)-6-(4-chlorophenyl)-N-(4-(3-(dimethylamino)pyrrolidin-1-yl)phenyl)quinolin-4-amine]	MAPKAPK2
CN(C)[C@H]1CCN(c2ccc(Nc3ccnc4ccc(-c5ccc6ccccc6c5)cc34)cc2)C1 [(S)-N-(4-(3-(dimethylamino)pyrrolidin-1-yl)phenyl)-6-(naphthalen-2-yl)quinolin-4-amine]	MAPKAPK2
Cc1ccc(-c2ccc3nccc(Nc4ccc(N(C)C5CCN(C)C5)cc4)c3c2)nc1 (centres unmarked) [N1-methyl-N4-(6-(5-methylpyridin-2-yl)quinolin-4-yl)-N1-(1-methylpyrrolidin-3-yl)benzene-1,4-diamine]	MAPKAPK2
CN(C)C1CCN(c2ccc(Nc3ccnc4ccc(-c5cccc6[nH]ccc56)cc34)cc2)C1 (centres unmarked) [N-(4-(3-(dimethylamino)pyrrolidin-1-yl)phenyl)-6-(1H-indol-4-yl)quinolin-4-amine]	MAPKAPK2
CN(C)C1CCN(c2ccc(Nc3ccnc4ccc(-c5ccc6[nH]ccc6c5)cc34)cc2)C1 (centres unmarked) [N-(4-(3-(dimethylamino)pyrrolidin-1-yl)phenyl)-6-(1H-indol-5-yl)quinolin-4-amine]	MAPKAPK2
CN(C)C1CCN(c2ccc(Nc3ccnc4ccc(-c5ccc6cc[nH]c6c5)cc34)cc2)C1 (centres unmarked) [N-(4-(3-(dimethylamino)pyrrolidin-1-yl)phenyl)-6-(1H-indol-6-yl)quinolin-4-amine]	MAPKAPK2
Cc1ccc(-c2ccc3nccc(Nc4ccc(N5CCC(N(C)C)C5)cc4)c3c2)cc1C (centres unmarked) [N-(4-(3-(dimethylamino)pyrrolidin-1-yl)phenyl)-6-(3,4-dimethylphenyl)quinolin-4-amine]	MAPKAPK2
COc1ccc(-c2ccc3nccc(Nc4ccc(N5CCC(N(C)C)C5)cc4)c3c2)cc1F (centres unmarked) [N-(4-(3-(dimethylamino)pyrrolidin-1-yl)phenyl)-6-(3-fluoro-4-methoxyphenyl)quinolin-4-amine]	MAPKAPK2
Cc1ccc(-c2ccc3nccc(Nc4ccc(N5CCC(N(C)C)C5)cc4)c3c2)cc1F (centres unmarked) [N-(4-(3-(dimethylamino)pyrrolidin-1-yl)phenyl)-6-(3-fluoro-4-methylphenyl)quinolin-4-amine]	MAPKAPK2
COc1cccc(-c2ccc3nccc(Nc4ccc(N5CCC(N(C)C)C5)cc4)c3c2)c1 (centres unmarked) [N-(4-(3-(dimethylamino)pyrrolidin-1-yl)phenyl)-6-(3-methoxyphenyl)quinolin-4-amine]	MAPKAPK2
Cc1cc(-c2ccc3nccc(Nc4ccc(N5CCC(N(C)C)C5)cc4)c3c2)ccc1F (centres unmarked) [N-(4-(3-(dimethylamino)pyrrolidin-1-yl)phenyl)-6-(4-fluoro-3-methylphenyl)quinolin-4-amine]	MAPKAPK2
CC(C)c1ccc(-c2ccc3nccc(Nc4ccc(N5CCC(N(C)C)C5)cc4)c3c2)cc1 (centres unmarked) [N-(4-(3-(dimethylamino)pyrrolidin-1-yl)phenyl)-6-(4-isopropylphenyl)quinolin-4-amine]	MAPKAPK2
COc1ccc(-c2ccc3nccc(Nc4ccc(N5CCC(N(C)C)C5)cc4)c3c2)cc1 (centres unmarked) [N-(4-(3-(dimethylamino)pyrrolidin-1-yl)phenyl)-6-(4-methoxyphenyl)quinolin-4-amine]	MAPKAPK2
Cc1ccc(-c2ccc3nccc(Nc4ccc(N5CCC(N(C)C)C5)cc4)c3c2)nc1 (centres unmarked) [N-(4-(3-(dimethylamino)pyrrolidin-1-yl)phenyl)-6-(5-methylpyridin-2-yl)quinolin-4-amine]	MAPKAPK2
CN(C)C1CCN(c2ccc(Nc3ccnc4ccc(-c5nccs5)cc34)cc2)C1 (centres unmarked) [N-(4-(3-(dimethylamino)pyrrolidin-1-yl)phenyl)-6-(thiazol-2-yl)quinolin-4-amine]	MAPKAPK2
Cc1ccc(-c2ccc3nccc(Nc4ccc(N5CCC(N(C)C)C5)cc4)c3c2)cc1 (centres unmarked) [N-(4-(3-(dimethylamino)pyrrolidin-1-yl)phenyl)-6-p-tolylquinolin-4-amine]	MAPKAPK2
COc1ccc(-c2ccc3nccc(Nc4ccc(N5CCN(C6CCCCC6)CC5)cc4)c3c2)cc1 [N-(4-(4-cyclohexylpiperazin-1-yl)phenyl)-6-(4-methoxyphenyl)quinolin-4-amine]	MAPKAPK2

The remaining lines, values ahead:

Activity	Structure (SMILES)
MAPKAPK2	CN1CCC(N(C)c2ccc(Nc3ccnc4ccc(-c5cnc6ccccc6c5)cc34)cc2)C1 (centres unmarked) [N1-(3,6′-biquinolin-4′-yl)-N4-methyl-N4-(1-methylpyrrolidin-3-yl)benzene-1,4-diamine]
MAPKAPK2	CCN(CC)C1CCN(c2ccc(Nc3ccnc4ccc(-c5ccc6ccccc6c5)cc34)cc2)C1 (centres unmarked) [N-(4-(3-(diethylamino)pyrrolidin-1-yl)phenyl)-6-(naphthalen-2-yl)quinolin-4-amine]
MAPKAPK2	C=Cc1ccc(-c2ccc3nccc(Nc4ccc(N5CCC(N(C)C)C5)cc4)c3c2)cc1 (centres unmarked) [N-(4-(3-(dimethylamino)pyrrolidin-1-yl)phenyl)-6-(4-vinylphenyl)quinolin-4-amine]
MAPKAPK2	CN(C)C1CCN(c2ccc(Nc3ccnc4ccc(-c5ccc6ccccc6c5)cc34)cc2)C1 (centres unmarked) [N-(4-(3-(dimethylamino)pyrrolidin-1-yl)phenyl)-6-(naphthalen-2-yl)quinolin-4-amine]
MAPKAPK2	Cc1cccc(-c2ccc3nccc(Nc4ccc(N5CCC(N(C)C)C5)cc4)c3c2)c1 (centres unmarked) [N-(4-(3-(dimethylamino)pyrrolidin-1-yl)phenyl)-6-m-tolylquinolin-4-amine]
MAPKAPK2	CN(C)CCN1CCN(c2ccc(Nc3ccnc4ccc(-c5ccccc5)cc34)cc2)CC1 [N-(4-(4-(2-(dimethylamino)ethyl)piperazin-1-yl)phenyl)-6-phenylquinolin-4-amine]
MAPKAPK2	COCCN1CCN(c2ccc(Nc3ccnc4ccc(-c5ccccc5)cc34)cc2)CC1 [N-(4-(4-(2-methoxyethyl)piperazin-1-yl)phenyl)-6-phenylquinolin-4-amine]
MAPKAPK2	CCC(CC)N1CCN(c2ccc(Nc3ccnc4ccc(-c5ccccc5)cc34)cc2)CC1 [N-(4-(4-(pentan-3-yl)piperazin-1-yl)phenyl)-6-phenylquinolin-4-amine]
MAPKAPK2	CCCCN1CCN(c2ccc(Nc3ccnc4ccc(-c5ccc(OC)cc5)cc34)cc2)CC1 [N-(4-(4-butylpiperazin-1-yl)phenyl)-6-(4-methoxyphenyl)quinolin-4-amine]
MAPKAPK2	CCCCN1CCN(c2ccc(Nc3ccnc4ccc(-c5ccccc5)cc34)cc2)CC1 [N-(4-(4-butylpiperazin-1-yl)phenyl)-6-phenylquinolin-4-amine]
MAPKAPK2	c1ccc(-c2ccc3nccc(Nc4ccc(N5CCN(C6CCCCC6)CC5)cc4)c3c2)cc1 [N-(4-(4-cyclohexylpiperazin-1-yl)phenyl)-6-phenylquinolin-4-amine]
MAPKAPK2	COc1ccc(-c2ccc3nccc(Nc4ccc(N5CCN(C6CCCC6)CC5)cc4)c3c2)cc1 [N-(4-(4-cyclopentylpiperazin-1-yl)phenyl)-6-(4-methoxyphenyl)quinolin-4-amine]
MAPKAPK2	c1ccc(-c2ccc3nccc(Nc4ccc(N5CCN(C6CCCC6)CC5)cc4)c3c2)cc1 [N-(4-(4-cyclopentylpiperazin-1-yl)phenyl)-6-phenylquinolin-4-amine]
MAPKAPK2	CCN1CCN(c2ccc(Nc3ccnc4ccc(-c5ccc(OC)cc5)cc34)cc2)CC1 [N-(4-(4-ethylpiperazin-1-yl)phenyl)-6-(4-methoxyphenyl)quinolin-4-amine]
MAPKAPK2	CN1CCN(c2ccc(Nc3ccnc4ccc(-c5cncnc5)cc34)cc2)CC1 [N-(4-(4-methylpiperazin-1-yl)phenyl)-6-(pyrimidin-5-yl)quinolin-4-amine]
MAPKAPK2	CCCN(c1ccc(N2CCN(C)CC2)cc1)c1ccnc2ccc(-c3ccccc3)cc12 [N-(4-(4-methylpiperazin-1-yl)phenyl)-6-phenyl-N-propylquinolin-4-amine]
MAPKAPK2	CCC(C)N1CCN(c2ccc(Nc3ccnc4ccc(-c5ccc(OC)cc5)cc34)cc2)CC1 (centres unmarked) [N-(4-(4-sec-butylpiperazin-1-yl)phenyl)-6-(4-methoxyphenyl)quinolin-4-amine]
MAPKAPK2	CCC(C)N1CCN(c2ccc(Nc3ccnc4ccc(-c5ccccc5)cc34)cc2)CC1 (centres unmarked) [N-(4-(4-sec-butylpiperazin-1-yl)phenyl)-6-phenylquinolin-4-amine]

Reference: patent US7452887B2, “Quinoline- and isoquinoline-based compounds exhibiting ATP-utilizing enzyme inhibitory activity, and compositions, and uses thereof” (Amphora Discovery Corporation, priority 2004, dated 2008)
